Test results from the supplement of paper PMC8671470.

tested on: BV-173; assay: cell viability (% survival relative to DMSO control, bortezomib = 0%); higher = less cytotoxic; conditions: 100 nM; 72 h
In short: (§1)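 Percent survival figures are means of duplicate wells. They were obtained by CellTiter-Glo luminescence after 10 AML and 5 CML cell lines spent 72 h at 37 °C with 5% CO2 in 384-well plates with compounds at 1, 10, 100, 1000 or 10000 nM. Vehicle was set to 100% and a 10 µM positive control to 0%.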

SMILES	cell viability [%]
Cc1c(-c2ccc(-c3ccccc3F)cc2)nc2ccc(F)cc2c1C(=O)O [Brequinar]	93.3
O=C1O/C(=C/Br)CCC1c1cccc2ccccc12 (stereo unspecified) [Bromoenol Lactone]	94.8
O=C(O)CCCCC(CCSCc1ccccc1)SCc1ccccc1 (stereo unspecified) [CPI-613]	91.1
CC(C)c1cc2c(c(O)c1O)[C@@]1(C(=O)O)CCCC(C)(C)[C@@H]1CC2 [Carnosic acid]	98.2
CCN(CC)CCCC(C)Nc1ccnc2cc(Cl)ccc12 (stereo unspecified) [Chloroquine]	111
Nc1nc(Cl)nc2c1ncn2[C@H]1C[C@H](O)[C@@H](CO)O1 [Cladribine]	-0.0212
NCCCC(N)(C(=O)O)C(F)F (stereo unspecified) [Difluoromethylornithine]	96.8

same assay, conditions: 1000 nM; 72 h

SMILES	cell viability [%]
COc1ccc(S(=O)(=O)N2CCN(S(=O)(=O)c3ccc4c(c3)OCCO4)CC2)cc1 [BML283]	91.7
O=c1cc(-c2ccccc2)oc2cc(O)c(O)c(O)c12 [Baicalein]	154
COC(=O)[C@]12CCC(C)(C)C[C@H]1[C@H]1C(=O)C=C3[C@@]4(C)C=C(C#N)C(=O)C(C)(C)[C@@H]4CC[C@@]3(C)[C@]1(C)CC2 [Bardoxolone methyl]	61
O=c1oc2c(O)c(O)cc3c(=O)oc4c(O)c(O)cc1c4c23 [Benzoaric Acid]	97.9
Cc1c(-c2ccc(-c3ccccc3F)cc2)nc2ccc(F)cc2c1C(=O)O [Brequinar]	118
O=C1O/C(=C/Br)CCC1c1cccc2ccccc12 (stereo unspecified) [Bromoenol Lactone]	85.9
O=C(O)CCCCC(CCSCc1ccccc1)SCc1ccccc1 (stereo unspecified) [CPI-613]	94.4
CC(C)c1cc2c(c(O)c1O)[C@@]1(C(=O)O)CCCC(C)(C)[C@@H]1CC2 [Carnosic acid]	82.6
CCN(CC)CCCC(C)Nc1ccnc2cc(Cl)ccc12 (stereo unspecified) [Chloroquine]	97.1
Nc1nc(Cl)nc2c1ncn2[C@H]1C[C@H](O)[C@@H](CO)O1 [Cladribine]	0.000225
NCCCC(N)(C(=O)O)C(F)F (stereo unspecified) [Difluoromethylornithine]	95.2

same assay, conditions: 10000 nM; 72 h

SMILES	cell viability [%]
COc1ccc(S(=O)(=O)N2CCN(S(=O)(=O)c3ccc4c(c3)OCCO4)CC2)cc1 [BML283]	112
O=c1cc(-c2ccccc2)oc2cc(O)c(O)c(O)c12 [Baicalein]	64.2
COC(=O)[C@]12CCC(C)(C)C[C@H]1[C@H]1C(=O)C=C3[C@@]4(C)C=C(C#N)C(=O)C(C)(C)[C@@H]4CC[C@@]3(C)[C@]1(C)CC2 [Bardoxolone methyl]	5.94
O=c1oc2c(O)c(O)cc3c(=O)oc4c(O)c(O)cc1c4c23 [Benzoaric Acid]	99.1
Cc1c(-c2ccc(-c3ccccc3F)cc2)nc2ccc(F)cc2c1C(=O)O [Brequinar]	32.2
O=C1O/C(=C/Br)CCC1c1cccc2ccccc12 (stereo unspecified) [Bromoenol Lactone]	24.3
O=C(O)CCCCC(CCSCc1ccccc1)SCc1ccccc1 (stereo unspecified) [CPI-613]	93.8
CC(C)c1cc2c(c(O)c1O)[C@@]1(C(=O)O)CCCC(C)(C)[C@@H]1CC2 [Carnosic acid]	43.8
CCN(CC)CCCC(C)Nc1ccnc2cc(Cl)ccc12 (stereo unspecified) [Chloroquine]	85.2
Nc1nc(Cl)nc2c1ncn2[C@H]1C[C@H](O)[C@@H](CO)O1 [Cladribine]	-0.197
NCCCC(N)(C(=O)O)C(F)F (stereo unspecified) [Difluoromethylornithine]	105

tested on: HL-60; assay: as above; conditions: 1 nM; 72 h
In short: as §1

SMILES	cell viability [%]
COc1ccc(S(=O)(=O)N2CCN(S(=O)(=O)c3ccc4c(c3)OCCO4)CC2)cc1 [BML283]	104
O=c1cc(-c2ccccc2)oc2cc(O)c(O)c(O)c12 [Baicalein]	110
COC(=O)[C@]12CCC(C)(C)C[C@H]1[C@H]1C(=O)C=C3[C@@]4(C)C=C(C#N)C(=O)C(C)(C)[C@@H]4CC[C@@]3(C)[C@]1(C)CC2 [Bardoxolone methyl]	114
O=c1oc2c(O)c(O)cc3c(=O)oc4c(O)c(O)cc1c4c23 [Benzoaric Acid]	94.6
Cc1c(-c2ccc(-c3ccccc3F)cc2)nc2ccc(F)cc2c1C(=O)O [Brequinar]	98.5
O=C1O/C(=C/Br)CCC1c1cccc2ccccc12 (stereo unspecified) [Bromoenol Lactone]	100
O=C(O)CCCCC(CCSCc1ccccc1)SCc1ccccc1 (stereo unspecified) [CPI-613]	107
CC(C)c1cc2c(c(O)c1O)[C@@]1(C(=O)O)CCCC(C)(C)[C@@H]1CC2 [Carnosic acid]	99.7
CCN(CC)CCCC(C)Nc1ccnc2cc(Cl)ccc12 (stereo unspecified) [Chloroquine]	101
Nc1nc(Cl)nc2c1ncn2[C@H]1C[C@H](O)[C@@H](CO)O1 [Cladribine]	108
NCCCC(N)(C(=O)O)C(F)F (stereo unspecified) [Difluoromethylornithine]	93.6

same assay, conditions: 10 nM; 72 h

SMILES	cell viability [%]
COc1ccc(S(=O)(=O)N2CCN(S(=O)(=O)c3ccc4c(c3)OCCO4)CC2)cc1 [BML283]	97.4
O=c1cc(-c2ccccc2)oc2cc(O)c(O)c(O)c12 [Baicalein]	86.7
COC(=O)[C@]12CCC(C)(C)C[C@H]1[C@H]1C(=O)C=C3[C@@]4(C)C=C(C#N)C(=O)C(C)(C)[C@@H]4CC[C@@]3(C)[C@]1(C)CC2 [Bardoxolone methyl]	91.8
O=c1oc2c(O)c(O)cc3c(=O)oc4c(O)c(O)cc1c4c23 [Benzoaric Acid]	106
Cc1c(-c2ccc(-c3ccccc3F)cc2)nc2ccc(F)cc2c1C(=O)O [Brequinar]	95.8
O=C1O/C(=C/Br)CCC1c1cccc2ccccc12 (stereo unspecified) [Bromoenol Lactone]	101
O=C(O)CCCCC(CCSCc1ccccc1)SCc1ccccc1 (stereo unspecified) [CPI-613]	111
CC(C)c1cc2c(c(O)c1O)[C@@]1(C(=O)O)CCCC(C)(C)[C@@H]1CC2 [Carnosic acid]	97.3
CCN(CC)CCCC(C)Nc1ccnc2cc(Cl)ccc12 (stereo unspecified) [Chloroquine]	79.8
Nc1nc(Cl)nc2c1ncn2[C@H]1C[C@H](O)[C@@H](CO)O1 [Cladribine]	88.3
NCCCC(N)(C(=O)O)C(F)F (stereo unspecified) [Difluoromethylornithine]	123

same assay, conditions: 100 nM; 72 h

SMILES	cell viability [%]
COc1ccc(S(=O)(=O)N2CCN(S(=O)(=O)c3ccc4c(c3)OCCO4)CC2)cc1 [BML283]	85.2
O=c1cc(-c2ccccc2)oc2cc(O)c(O)c(O)c12 [Baicalein]	114
COC(=O)[C@]12CCC(C)(C)C[C@H]1[C@H]1C(=O)C=C3[C@@]4(C)C=C(C#N)C(=O)C(C)(C)[C@@H]4CC[C@@]3(C)[C@]1(C)CC2 [Bardoxolone methyl]	112
O=c1oc2c(O)c(O)cc3c(=O)oc4c(O)c(O)cc1c4c23 [Benzoaric Acid]	90.7
Cc1c(-c2ccc(-c3ccccc3F)cc2)nc2ccc(F)cc2c1C(=O)O [Brequinar]	93.2
O=C1O/C(=C/Br)CCC1c1cccc2ccccc12 (stereo unspecified) [Bromoenol Lactone]	144
O=C(O)CCCCC(CCSCc1ccccc1)SCc1ccccc1 (stereo unspecified) [CPI-613]	110
CC(C)c1cc2c(c(O)c1O)[C@@]1(C(=O)O)CCCC(C)(C)[C@@H]1CC2 [Carnosic acid]	89.3
CCN(CC)CCCC(C)Nc1ccnc2cc(Cl)ccc12 (stereo unspecified) [Chloroquine]	97.1
Nc1nc(Cl)nc2c1ncn2[C@H]1C[C@H](O)[C@@H](CO)O1 [Cladribine]	26.6
